Results published in patent publication EP0245669B1, “Pharmaceutical preparation for preventing damage to living cells by free radicals, or for increasing the efficacy of organic sulphur compounds, and process for increasing the life span of isolated organs” (Medopharm Arzneimittelwerk Dr. Zillich GmbH & Co., priority 1986, dated 1987).

Key:
weiblichen C3H Mäusen = test: Radiation protection: survival of mice after gamma irradiation (cobalt-60) following i.p. pretreatment; assay type: in vivo, Mäuse; details: for Ueberlebensrate nach Bestrahlung mit 9 Gy Anzahl / Ueberlebensrate nach Bestrahlung mit 10 Gy Anzahl / Ueberlebensrate nach Bestrahlung mit 11 Gy Anzahl / Ueberlebensrate nach Bestrahlung mit 12 Gy Anzahl / Ueberlebensrate nach Bestrahlung mit 13 Gy Anzahl: surviving/irradiated mice; for Ueberlebensrate in %: best result with zinc aspartate alone, 30 days after irradiation; for Ueberleben einer Bestrahlung von 14 Gy: zinc aspartate alone
Excerpt: In den nachfolgenden Beispielen wurde die synergistische Wirkung der durch die erfindungsgemässe Verwendung hergestellten pharmazeutischen Präparate mit organische Schwefelverbindungen enthaltenden Präparaten anhand des Strahlenschutzes getestet und es wurde auch die Strahlenschutzwirkung der Zinkionen enthaltenden Präparate mit bisher bekannten Strahlenschutzpräparaten an Mäusen getestet. Die Versuche wurden mit weiblichen C3H Mäusen (GL. Bomholtgard, Ry, Dänemark) durchgeführt, die 20 bis 22 g wogen. Die Mäuse wurden unter Bedingungen gehalten, wo sie so viel Standard-Nagetierfutter (Nafag Pellts) fressen und so viel Leitungswasser trinken können, wie sie wollten. Die Bestrahlung erfolgte mit Gammastrahlen aus einer Kobalt-60 Quelle. Es wurden unterschiedliche Bestrahlungen vorgenommen, und zwar mit 9 Gy, 10 Gy, 11 Gy, 12 Gy, 13 Gy und 14 Gy.
10 Minuten vor der Bestrahlung, 30 Minuten vor der Bestrahlung oder 120 Minuten vor der Bestrahlung wurde ein durch die erfindungsgemässe Verwendung hergestelltes synergistisch wirkendes pharmazeutisches Präparat, bzw. ein entsprechendes, Zinkionen enthaltendes Strahlenschutzpräparat oder ein aus dem Stand der Technik bekanntes Strahlenschutzpräparat zu Vergleichszwecken durch intraperitoneale Injektion verabreicht.
Bei der Gruppe der Mäuse zu Vergleichszwecken, die ohne Verabreichung eines Strahlenschutzpräparates bestrahlt wurden, erfolgte 10 Minuten vor der Bestrahlung die Verabreichung von destilliertem Wasser. Bei diesen unbehandelten Mäusen überlebten nur 50% der Tiere eine Bestrahlung von 8 Gy, d.h. der LD₅₀-Wert betrug 8 Gy.
Nach den Arbeitsweisen der vorangegangenen Beispiele 1 bis 4, wurden weitere Tests mit den genannten weiblichen Mäusen durchgeführt, und zwar unter Verwendung der angeführten Zinksalze. Die bei diesen Tests erzielten Ergebnisse sind in der nachfolgenden Tabelle I zusammengestellt. Für jede der angewandten Bestrahlungsstärken ist in der Rubrik "Anzahl" diejenige Anzahl der Mäuse angeführt, welche die Bestrahlung überlebten, geteilt durch die Gesamtzahl der Mäuse, welche bestrahlt wurden. Ein entsprechender Wert von 1/10 bedeutet also, dass von 10 bestrahlten Mäusen eine überlebt hatte. In der Spalte mit der Bezeichnung "Prozent", ist die Prozent-Ueberlebensrate angeführt. Bei einer überlebenden Maus pro 10 getesteten Mäusen beträgt diese Ueberlebensrate 10 %.
Zu Vergleichszwecken sind in der nachfolgenden Tabelle III die Ueberlebensraten von Mäusen zusammengestellt, die nach dem in Beispiel 5 beschriebenen Verfahren einer Vorbehandlung mit einem bekannten schwefelhaltigen Strahlenschutzmittel unterworfen worden waren. Orientierende Vorversuche hatten gezeigt, dass diese Strahlenschutzmittel bereits ihre Wirkung verloren hatten, wenn sie zwei Stunden vor der Einwirkung der Bestrahlung verabreicht worden waren. Die Bestrahlung wurde, wie aus der Tabelle ersichtlich ist, zwei Minuten nach der Verabreichung, in den meisten Fällen 10 Minuten nach der Verabreichung, aber auch 30 Minuten, bzw. 120 Minuten nach der Verabreichung durchgeführt. Die Werte deuten darauf hin, dass 30 Minuten nach der Verabreichung die Schutzwirkung schon wieder deutlich nachgelassen hat. Für jede Bestrahlungsstärke ist wiederum die Anzahl der Tiere angeführt, die nach 30 Tagen überlebt haben, geteilt durch die Gesamtzahl der Tiere, die behandelt und bestrahlt worden waren.
Anhand dieses Beispiels soll die synergistische Wirkung von Zinkionen und Schwefelverbindungen bezüglich eines Strahlenschutzes erläutert werden. Es wurde wieder in der gleichen Weise gearbeitet, wie in den vorangegangenen Beispielen 1 bis 3, bzw. 5, und es wurde auch die gleiche Art an weiblichen Mäusen getestet. Die Verabreichung der Zinkionen enthaltenden Lösung und der Lösung der Schwefelverbindung erfolgte entweder nacheinander oder gleichzeitig durch intraperitoneale Injektion.
In allen Fällen wurde die Ueberlebensrate 30 Tage nach der Einwirkung der Bestrahlung bestimmt.

Mäuse = test: Toxicity of the zinc salts used as radiation protection agents (LD50); assay type: in vivo
Description: In diesem Beispiel wurde die Toxizität der als Strahlenschutzmittel eingesetzten Zinksalze getestet.
Der LD₅₀-Wert betrug für das Zinkaspartat 55 mg/kg Körpergewicht, für das Zinkchlorid 24 mg/kg Körpergewicht und für das Zinksulfat 45 mg/kg Körpergewicht.

[1] = Floersheim, Agents Actions 16, 580 (1985); cited from earlier work
[2] = 10 mg/kg i.p., 10 min before 9 Gy
[3] = 20 mg/kg i.p., 10 min before 9 Gy
[4] = 20 mg/kg i.p., 10 min before 10 Gy
[5] = 20 mg/kg i.p., 10 min before 11 Gy
[6] = 20 mg/kg i.p., 30 min before 9 Gy
[7] = 20 mg/kg i.p., 30 min before 10 Gy
[8] = 20 mg/kg i.p., 120 min before 9 Gy
[9] = 20 mg/kg i.p., 120 min before 10 Gy
[10] = 30 mg/kg i.p., 10 min before 9 Gy
[11] = 30 mg/kg i.p., 10 min before 10 Gy
[12] = 30 mg/kg i.p., 10 min before 11 Gy
[13] = 30 mg/kg i.p., 10 min before 12 Gy
[14] = 30 mg/kg i.p., 10 min before 13 Gy
[15] = 30 mg/kg i.p., 30 min before 9 Gy
[16] = 30 mg/kg i.p., 30 min before 10 Gy
[17] = 30 mg/kg i.p., 30 min before 11 Gy
[18] = 30 mg/kg i.p., 30 min before 12 Gy
[19] = 30 mg/kg i.p., 30 min before 13 Gy
[20] = 30 mg/kg i.p., 120 min before 9 Gy
[21] = 30 mg/kg i.p., 120 min before 10 Gy
[22] = 30 mg/kg i.p., 120 min before 11 Gy
[23] = 30 mg/kg i.p., 120 min before 12 Gy
[24] = 30 mg/kg i.p., 120 min before 13 Gy
[25] = 40 mg/kg i.p., 10 min before 9 Gy
[26] = 40 mg/kg i.p., 10 min before 10 Gy
[27] = 40 mg/kg i.p., 10 min before 11 Gy
[28] = 40 mg/kg i.p., 10 min before 12 Gy
[29] = 40 mg/kg i.p., 10 min before 13 Gy
[30] = 40 mg/kg i.p., 30 min before 9 Gy
[31] = 40 mg/kg i.p., 30 min before 10 Gy
[32] = 40 mg/kg i.p., 30 min before 11 Gy
[33] = 40 mg/kg i.p., 30 min before 12 Gy
[34] = 40 mg/kg i.p., 30 min before 13 Gy
[35] = 40 mg/kg i.p., 120 min before 9 Gy
[36] = 40 mg/kg i.p., 120 min before 10 Gy
[37] = 40 mg/kg i.p., 120 min before 11 Gy
[38] = 40 mg/kg i.p., 120 min before 12 Gy
[39] = 40 mg/kg i.p., 120 min before 13 Gy

Zink-bis-(DL-hydrogenaspartat) [Zinkaspartat]
Ueberlebensrate nach Bestrahlung mit 9 Gy % (weiblichen C3H Mäusen; [2]): 10% | Ueberlebensrate nach Bestrahlung mit 9 Gy Anzahl (weiblichen C3H Mäusen; [2]): 1/10 | Ueberlebensrate nach Bestrahlung mit 9 Gy % (weiblichen C3H Mäusen; [3]): 67% | Ueberlebensrate nach Bestrahlung mit 9 Gy Anzahl (weiblichen C3H Mäusen; [3]): 26/39 | Ueberlebensrate nach Bestrahlung mit 10 Gy % (weiblichen C3H Mäusen; [4]): 29% | Ueberlebensrate nach Bestrahlung mit 10 Gy Anzahl (weiblichen C3H Mäusen; [4]): 13/45 | Ueberlebensrate nach Bestrahlung mit 11 Gy % (weiblichen C3H Mäusen; [5]): 0% | Ueberlebensrate nach Bestrahlung mit 11 Gy Anzahl (weiblichen C3H Mäusen; [5]): 0/20 | Ueberlebensrate nach Bestrahlung mit 9 Gy % (weiblichen C3H Mäusen; [6]): 60% | Ueberlebensrate nach Bestrahlung mit 9 Gy Anzahl (weiblichen C3H Mäusen; [6]): 6/10 | Ueberlebensrate nach Bestrahlung mit 10 Gy % (weiblichen C3H Mäusen; [7]): 0% | Ueberlebensrate nach Bestrahlung mit 10 Gy Anzahl (weiblichen C3H Mäusen; [7]): 1/10 | Ueberlebensrate nach Bestrahlung mit 9 Gy % (weiblichen C3H Mäusen; [8]): 50% | Ueberlebensrate nach Bestrahlung mit 9 Gy Anzahl (weiblichen C3H Mäusen; [8]): 5/10 | Ueberlebensrate nach Bestrahlung mit 10 Gy % (weiblichen C3H Mäusen; [9]): 0% | Ueberlebensrate nach Bestrahlung mit 10 Gy Anzahl (weiblichen C3H Mäusen; [9]): 0/10 | Ueberlebensrate nach Bestrahlung mit 9 Gy % (weiblichen C3H Mäusen; [10]): 88% | Ueberlebensrate nach Bestrahlung mit 9 Gy Anzahl (weiblichen C3H Mäusen; [10]): 43/49 | Ueberlebensrate nach Bestrahlung mit 10 Gy % (weiblichen C3H Mäusen; [11]): 74^+ % | Ueberlebensrate nach Bestrahlung mit 10 Gy Anzahl (weiblichen C3H Mäusen; [11]): 43/58 | Ueberlebensrate nach Bestrahlung mit 11 Gy % (weiblichen C3H Mäusen; [12]): 10% | Ueberlebensrate nach Bestrahlung mit 11 Gy Anzahl (weiblichen C3H Mäusen; [12]): 3/30 | Ueberlebensrate nach Bestrahlung mit 12 Gy % (weiblichen C3H Mäusen; [13]): 3% | Ueberlebensrate nach Bestrahlung mit 12 Gy Anzahl (weiblichen C3H Mäusen; [13]): 1/30 | Ueberlebensrate nach Bestrahlung mit 13 Gy % (weiblichen C3H Mäusen; [14]): 0% | Ueberlebensrate nach Bestrahlung mit 13 Gy Anzahl (weiblichen C3H Mäusen; [14]): 0/20 | Ueberlebensrate nach Bestrahlung mit 9 Gy % (weiblichen C3H Mäusen; [15]): 80% | Ueberlebensrate nach Bestrahlung mit 9 Gy Anzahl (weiblichen C3H Mäusen; [15]): 8/10 | Ueberlebensrate nach Bestrahlung mit 10 Gy % (weiblichen C3H Mäusen; [16]): 70% | Ueberlebensrate nach Bestrahlung mit 10 Gy Anzahl (weiblichen C3H Mäusen; [16]): 21/30 | Ueberlebensrate nach Bestrahlung mit 11 Gy % (weiblichen C3H Mäusen; [17]): 60% | Ueberlebensrate nach Bestrahlung mit 11 Gy % (weiblichen C3H Mäusen; 30 mg/kg i.p., 30 min before 11 Gy, listed as Zink-aspartat): 60^+ % | Ueberlebensrate nach Bestrahlung mit 11 Gy Anzahl (weiblichen C3H Mäusen; [17]): 24/40 | Ueberlebensrate nach Bestrahlung mit 12 Gy % (weiblichen C3H Mäusen; [18]): 57% | Ueberlebensrate nach Bestrahlung mit 12 Gy % (weiblichen C3H Mäusen; 30 mg/kg i.p., 30 min before 12 Gy, listed as Zink-aspartat): 57^+ % | Ueberlebensrate nach Bestrahlung mit 12 Gy Anzahl (weiblichen C3H Mäusen; [18]): 17/30 | Ueberlebensrate nach Bestrahlung mit 13 Gy % (weiblichen C3H Mäusen; [19]): 17% | Ueberlebensrate nach Bestrahlung mit 13 Gy Anzahl (weiblichen C3H Mäusen; [19]): 5/30 | Ueberlebensrate nach Bestrahlung mit 9 Gy % (weiblichen C3H Mäusen; [20]): 90^+ % | Ueberlebensrate nach Bestrahlung mit 9 Gy Anzahl (weiblichen C3H Mäusen; [20]): 9/10 | Ueberlebensrate nach Bestrahlung mit 10 Gy % (weiblichen C3H Mäusen; [21]): 40% | Ueberlebensrate nach Bestrahlung mit 10 Gy Anzahl (weiblichen C3H Mäusen; [21]): 8/20 | Ueberlebensrate nach Bestrahlung mit 11 Gy % (weiblichen C3H Mäusen; [22]): 53% | Ueberlebensrate nach Bestrahlung mit 11 Gy Anzahl (weiblichen C3H Mäusen; [22]): 16/30 | Ueberlebensrate nach Bestrahlung mit 12 Gy % (weiblichen C3H Mäusen; [23]): 35% | Ueberlebensrate nach Bestrahlung mit 12 Gy Anzahl (weiblichen C3H Mäusen; [23]): 7/20 | Ueberlebensrate nach Bestrahlung mit 13 Gy % (weiblichen C3H Mäusen; [24]): 14% | Ueberlebensrate nach Bestrahlung mit 13 Gy Anzahl (weiblichen C3H Mäusen; [24]): 4/29 | Ueberlebensrate nach Bestrahlung mit 9 Gy % (weiblichen C3H Mäusen; [25]): 59% | Ueberlebensrate nach Bestrahlung mit 9 Gy Anzahl (weiblichen C3H Mäusen; [25]): 17/29 | Ueberlebensrate nach Bestrahlung mit 10 Gy % (weiblichen C3H Mäusen; [26]): 55% | Ueberlebensrate nach Bestrahlung mit 10 Gy Anzahl (weiblichen C3H Mäusen; [26]): 16/29 | Ueberlebensrate nach Bestrahlung mit 11 Gy % (weiblichen C3H Mäusen; [27]): 3% | Ueberlebensrate nach Bestrahlung mit 11 Gy Anzahl (weiblichen C3H Mäusen; [27]): 1/40 | Ueberlebensrate nach Bestrahlung mit 12 Gy % (weiblichen C3H Mäusen; [28]): 17% | Ueberlebensrate nach Bestrahlung mit 12 Gy Anzahl (weiblichen C3H Mäusen; [28]): 5/30 | Ueberlebensrate nach Bestrahlung mit 13 Gy % (weiblichen C3H Mäusen; [29]): 5% | Ueberlebensrate nach Bestrahlung mit 13 Gy Anzahl (weiblichen C3H Mäusen; [29]): 1/19 | Ueberlebensrate nach Bestrahlung mit 9 Gy % (weiblichen C3H Mäusen; [30]): 45% | Ueberlebensrate nach Bestrahlung mit 9 Gy Anzahl (weiblichen C3H Mäusen; [30]): 9/20 | Ueberlebensrate nach Bestrahlung mit 10 Gy % (weiblichen C3H Mäusen; [31]): 70% | Ueberlebensrate nach Bestrahlung mit 10 Gy Anzahl (weiblichen C3H Mäusen; [31]): 7/10 | Ueberlebensrate nach Bestrahlung mit 11 Gy % (weiblichen C3H Mäusen; [32]): 50% | Ueberlebensrate nach Bestrahlung mit 11 Gy Anzahl (weiblichen C3H Mäusen; [32]): 5/10 | Ueberlebensrate nach Bestrahlung mit 12 Gy % (weiblichen C3H Mäusen; [33]): 30% | Ueberlebensrate nach Bestrahlung mit 12 Gy Anzahl (weiblichen C3H Mäusen; [33]): 3/10 | Ueberlebensrate nach Bestrahlung mit 13 Gy % (weiblichen C3H Mäusen; [34]): 24^+ % | Ueberlebensrate nach Bestrahlung mit 13 Gy Anzahl (weiblichen C3H Mäusen; [34]): 7/29 | Ueberlebensrate nach Bestrahlung mit 9 Gy % (weiblichen C3H Mäusen; [35]): 50% | Ueberlebensrate nach Bestrahlung mit 9 Gy Anzahl (weiblichen C3H Mäusen; [35]): 5/10 | Ueberlebensrate nach Bestrahlung mit 10 Gy % (weiblichen C3H Mäusen; [36]): 50% | Ueberlebensrate nach Bestrahlung mit 10 Gy Anzahl (weiblichen C3H Mäusen; [36]): 5/10 | Ueberlebensrate nach Bestrahlung mit 11 Gy % (weiblichen C3H Mäusen; [37]): 10% | Ueberlebensrate nach Bestrahlung mit 11 Gy Anzahl (weiblichen C3H Mäusen; [37]): 1/10 | Ueberlebensrate nach Bestrahlung mit 12 Gy % (weiblichen C3H Mäusen; [38]): 0% | Ueberlebensrate nach Bestrahlung mit 12 Gy Anzahl (weiblichen C3H Mäusen; [38]): 0/10 | Ueberlebensrate nach Bestrahlung mit 13 Gy % (weiblichen C3H Mäusen; [39]): 5% | Ueberlebensrate nach Bestrahlung mit 13 Gy Anzahl (weiblichen C3H Mäusen; [39]): 1/19 | Ueberlebensrate in % (weiblichen C3H Mäusen; 8 Gy): 100% | Ueberlebensrate in % (weiblichen C3H Mäusen; 9 Gy): 90% | Ueberlebensrate in % (weiblichen C3H Mäusen; 10 Gy): 74% | Ueberlebensrate in % (weiblichen C3H Mäusen; 11 Gy): 60% | Ueberlebensrate in % (weiblichen C3H Mäusen; 12 Gy): 57% | Ueberlebensrate in % (weiblichen C3H Mäusen; 13 Gy): 24% | Ueberlebensrate in % (weiblichen C3H Mäusen; 14 Gy): 0% | Strahlenschutzwirkung (weiblichen C3H Mäusen; comparison with Zinkchlorid and Zinksulfat): Besonders vorteilhaft | Ueberleben einer Bestrahlung von 14 Gy (weiblichen C3H Mäusen; 20 mg/kg body weight, 14 Gy): nicht überlebten | Ueberleben einer Bestrahlung von 14 Gy (weiblichen C3H Mäusen; 30 mg/kg body weight, 14 Gy): nicht überlebten | LD₅₀-Wert (Mäuse): 55 mg/kg Körpergewicht | akute Toxizität von Aethanol [1]: vermindert
